Values quoted from earlier work in patent US5411479A, “Cancer treatment and catheter for use in treatment” (priority 1993, dated 1995).

Key:
[1] = tested on: hepatocellular tumor; conditions: for activity in hepatocellular tumor: systemic chemotherapy, Phase II trials
[2] = tested on: colon cancer metastatic to the liver; conditions: for effectiveness of arterial infusion: drug delivered directly to liver tumor cells
[3] = for Local hepatobiliary toxicities (hepatitis, cholecystitis, biliary sclerosis, stenosis and stricture): conventional HAI; for Systemic toxicity of HAI chemotherapy: conventional doses; for Hepatitis (nausea, vomiting, abdominal pain, jaundice, elevated liver transaminases and bilirubin): in vivo

SMILES | activity in hepatocellular tumor [1] | effectiveness of arterial infusion [2] | dose-response effect ([2]; in vivo) | Local hepatobiliary toxicities (hepatitis, cholecystitis, biliary sclerosis, stenosis and stricture) [3] | Systemic toxicity of HAI chemotherapy [3] | Hepatitis (nausea, vomiting, abdominal pain, jaundice, elevated liver transaminases and bilirubin) [3] | objective therapeutic responses ([1]; doxorubicin 60 mg/m^2 every 3 weeks) | toxicity ([1]; doxorubicin 75 mg/m^2 every 3 weeks) | objective response ([1]; doxorubicin 75 mg/m^2 every 3 weeks, East African blacks, of 50 patients treated) [patients] | complete response ([1]; doxorubicin 75 mg/m^2 every 3 weeks, among 22 objective responses, 50 patients treated) [patients]
O=c1[nH]cc(F)c(=O)[nH]1 [5-FU, 5-fluorouracil] | significant activity | increases their effectiveness | displays a dose-response effect | up to 50 % of the patients | has not been a major problem | has occurred | – | – | – | –
O=c1[nH]c(=O)n([C@H]2C[C@H](O)[C@@H](CO)O2)cc1F [FUDR, floxuridine] | – | increases their effectiveness | – | up to 50 % of the patients | has not been a major problem | has occurred | – | – | – | –
COc1cccc2c1C(=O)c1c(O)c3c(c(O)c1C2=O)C[C@@](O)(C(=O)CO)C[C@@H]3O[C@H]1C[C@H](N)[C@H](O)[C@H](C)O1 [doxorubicin] | significant activity | – | – | – | – | – | approximately 20 % of the patients | Substantial toxicity | 22 | 3
